Results as given in patent publication US10946057B2, “Antiseptics” (INSIGHT HEALTH LIMITED, priority 2007, dated 2021).
≈ marks a conversion by molar mass, not a printed value. Read-outs that look alike come from different tables or passages of the source.

Legend:
[1] = system: S. epidermidis RP62A (planktonic cells, suspension); assay: MIC/MBC by microbroth dilution assay, S. epidermidis in suspension; format: cell-based; conditions: Staphylococcus epidermidis, read-out: Minimum inhibitory concentration (MIC), planktonic cells
Procedure: Test inocula for the suspension assay were prepared by suspending 10 colonies of S. epidermidis RP62A from an overnight culture on MHA into sterile PBS. The bacterial concentration was adjusted to 1×10*8 cfu/mL by diluting the culture with sterile PBS and measuring the OD at 570 nm (calibration curve for S. epidermidis cfu against OD at 570 nm were performed prior to the study, data not shown). The suspension was further diluted with MHB to obtain inocula containing 1×10*7 cfu/mL for synergy assays or 1×10*6 cfu/ml for testing antimicrobial activity of CHG and oils alone in suspension.
(§1) Aqueous chlorhexidine digluconate (CHG), tea tree oil (TTO), eucalyptus oil (EO) and thymol (all from Sigma-Aldrich) were diluted with MHB to obtain stock solution of 512 mg/mL for essential oils and 512 μg/mL for CHG. Five percent (v/v) dimethylsulphoxide (DMSO) (Sigma-Aldrich) was added to the stocks of essential oils to enhance their solubility of the oils in suspension.
Minimum inhibitory concentration (MIC) and minimum bacterial concentration (MBC) of aqueous CHG, TTO, EO and thymol were performed by microbroth dilution assay (NCCLS, 1997). […] Minimum bactericidal concentrations were determined by removing the suspension from the clear wells into MHA, spread with a sterile spreader and incubating the plates in air at 37° C. for 18-20 hours. […]

[2] = system: S. epidermidis RP62A biofilm; assay: Antimicrobial activity against S. epidermidis biofilm by ATP bioluminescence; format: cell-based, Staphylococcus epidermidis; conditions: for MBC/biofilm eradicating concentration / Minimum inhibitory concentration (MIC), bacteria growing in biofilm: S. epidermidis RP62A biofilm
Procedure: S. epidermidis RP62A was used for its ability to produce a biofilm (Sadovskaya, et al., 2005). Bacteria were stored on beads (MicroBank, Pro-Lab Diagnostics, Cheshire, UK) at −70° C. until required. The ability of the strain to produce slime was confirmed by culturing the bacteria on Congo Red agar (Freeman, et al., 1989). For producing the microbial biofilms, the strains were first inoculated onto Muller-Hinton agar (MHA) (Oxoid, Basingstoke, UK) and incubated in air at 37° C. for 18-20 hours. Ten colonies from the culture plate were suspended into sterile phosphate buffered saline (PBS, Sigma, Dorset, UK). The bacterial concentration was adjusted to 1×10*8 cfu/mL by diluting the culture with sterile PBS and measuring the OD at 570 nm (calibration curve for S. epidermidis cfu against OD at 570 nm were performed prior to the study, data not shown). The suspension was further diluted with Muller-Hinton broth (MHB) supplemented with 2% (w/v) glucose (Fisher Scientific, Leicester, UK) to obtain inocula containing 1×10*5 cfu/mL. Two hundred μL of the bacterial suspension were aliquoted into wells of white walled, clear bottom, tissue culture treated 96-well microtitre plate (Corning Incorporated, NY, USA). The wells in the last column of the plate served as a control, and contained 200 μL of MHB supplemented with 2% (w/v) glucose only. Microtitre plates were incubated in air at 37° C. for 48 hours.
as §1
Prior to antimicrobial susceptibility studies, a standard curve for relative light units (RLU) versus bacterial cfu/mL was performed. S. epidermidis was grown with MHB supplemented with 2% (w/v) glucose in a 96-well microtitre plate as described previously to obtain bacterial biofilms. The wells of the microtitre plate with established bacterial biofilms were washed three times with sterile PBS and biofilms were removed from the wells by using “a scrape and wash method” (Adams, 2006). In brief, each well was filled with 200 μL of sterile PBS and, with a sterile pipette tip, the wall of each well was scraped approximately 10 times and the bottom scraped horizontally, vertically and cross-wise in each direction 10 times. The suspension was removed and collected into a sterile Eppendorf tube and the procedure repeated a further 4 times to obtain a final volume of 1000 μL per tube. The procedure was performed on three wells separately. The suspensions were mixed by vortexing and serial dilutions were performed in sterile PBS. 100 μL of the neat suspension and 10^−1 to 10^−5 dilutions were aliquoted onto wells of a white-walled, clear bottom microtitre plate. 100 microlitres of bactolyse were added into each well. The plate was then floated on a water bath sonicator and the plate was sonicated at 50 Hz for 30 minutes to lyse the cells and release the bacterial ATP. Twenty μL of luciferase where added into each well and luminescence read by a luminometer. The bacterial cfu in each suspension and dilution were established by the drop count method. The results were expressed as cfu against RLU.
Microtitre plates containing S. epidermidis RP62A biofilm were washed once with sterile PBS to remove any unbound bacteria. Antimicrobial agents were diluted with MHB to obtain CHG concentrations of 128 μg/mL to 0.25 μg/mL and essential oil concentrations of 256 mg/mL to 0.5 mg/mL. Two hundred and fifty microlitres of the antimicrobial compound were added in the wells in triplicate. Columns 11 and 12 served as controls with biofilm with saline alone and clear wells with MHB alone without bacterial biofilm.

[3] = Skin permeation of CHG with EO and IPA, Franz diffusion cells, receptor compartment by HPLC; conditions: 24 h permeation study, skin from two donors; LOD 0.0157 μg/mL
Procedure: The full thickness human skin was frozen on the day of excision and stored at −70° C. until required.
Skin permeation studies were performed with vertical Franz diffusion cells. The receptor compartment was filled with 29 mL of PBS and maintained at 37° C. by a circulating water jacket and agitated by stirring with a magnetic bar. Skin samples were thawed in PBS at room temperature, dried with an absorbent towel and mounted onto Franz diffusion cells with the stratum corneum (SC) uppermost facing the donor compartment. The surface area exposed to the test compound was 3.14 cm2 (2 cm in diameter). All entrapped air was removed between the skin and receptor fluid and the skin was left to equilibrate for 30 min to reach the skin surface temperature of 32° C.
Twenty percent (w/v) aqueous CHG was diluted with distilled water, IPA and EO to obtain the final concentrations of 2% (w/v) CHG in 70% (v/v) IPA and 2% (w/v) CHG with 5%, 10%, 20% and 50% (v/v) EO. Tween 80 [0.1% (v/v)] was added to the test solutions to enhance EO solubility in the vehicle. One millilitre of test solution was spread over the skin surface in the donor compartment and the compartment was sealed with a moisture resistant film to prevent evaporation. […] All samples were filtered through a 0.45 μm nylon filter (Kinesis, UK) and analysed by HPLC. […]

[4] = CHG penetration profile studies with EO and IPA (CHG extracted from skin sections); format: in vitro ADME, human
Procedure: Following exposure, the skin samples were removed, washed with PBS and dried with an absorbent towel. The skin samples were immediately sprayed with a cryospray (Bright Instruments) and frozen at -20° C. Punch biopsies (7 mm in diameter) were cut from each frozen sample in triplicate and placed onto a cork disc in embedding compound (Bright Instruments, Cambs, UK), The frozen samples were sectioned horizontally with a microtome (Bright Instruments) into 20 μm sections (from the surface to a depth of 600 μm) and 30 μm sections (from depths of 600 to 1500 μm). Each section was placed into an Eppendorf tube and the total weight of each skin sample determined. Chlorhexidine was extracted from the skin by aliquoting 1 mL of mobile phase solution (75% methanol, 25% distilled water, 0.1% sodium heptane sulphonate, 0.1% diethylamine, pH 4) into skin samples and incubated in water bath at 60° C. for 1 h. The samples were mixed by vortexing and filtered prior to analysis by HPLC. The results were calculated as μg of CHG per mg of skin. Control skin (skin without treatment) was analysed parallel to the test samples. The assay was performed in triplicate. The data obtained were analysed by a student t-test using […] software (Graph pad software version 3.06) with a p<0.05 level of significance.

[5] = Skin permeation study CHG + eucalyptus oil, Franz diffusion cells, receptor fluid by HPLC; format: in vitro ADME; conditions: 24 hour skin permeation, full thickness human skin, Franz cell
Procedure: Prior to the study full ethical committee approval and written consent from patients donating the tissue was obtained. […] Vertical diffusion cells (Franz diffusion cells), with an average diffusion surface area of 1.65 cm^2, were used for skin permeation studies. Phosphate buffered saline (PBS) was used as a receptor fluid, and left overnight in a receptor compartment (approximately volume 29 mls) with circulating water jacket set at 37° C. On the day of investigation the excised skin was thawed in PBS and cut into size to fit Franz diffusion cells (2.9 cm circle across). The skin samples were mounted into Franz diffusion cells and left for 1 hour in the diffusion cells to equilibrate with the receptor fluid prior to commencing the study. […] One millilitre of CHG solution of CHG/eucalyptus oil suspension was aliquoted in triplicate on the surface of the excised human skin on the donor compartment in Franz diffusion cells. The temperature was maintained constant by a circulating water jacket set at 37° C. and the receptor fluid was agitated continuously by magnetic stirrer bar. […] The samples were filtered and analysed by HPLC. Chlorhexidine digluconate was analysed quantitatively by HPLC. […] The samples were filtered and analysed with HPLC (Agilent 1100) with ODS-2 Hypersil column (5μ particle size) (Thermo Electron Corporation, UK) with a flow rate of 1.2 mls/min, detector wavelength 254 nm.

Row | Structure (SMILES) | MIC ([1]; agent alone) | MBC/biofilm eradicating concentration [2] | Minimum inhibitory concentration (MIC), bacteria growing in biofilm ([2]; agent alone) | MIC higher against bacteria growing in biofilm compared to planktonic cells ([2]; biofilm vs planktonic) | Chlorhexidine in the receptor compartment [3] | Mean concentration of CHG (and SEM) within the tissues ([4]; 2 min exposure, 300 to 1500 μm depths) | Mean CHG concentration (and SEM) ([4]; 30 min exposure, depths of 300 μm to 1500 μm) | CHG concentration extracted from the deeper layers of the skin ([4]; 24 h exposure, 300 to 1500 μm depths) | CHG concentration extracted from the top 100 μm layer ([4]; 24 h exposure, top 100 μm) | Levels of CHG in the receptor fluid [5] | MIC ([1]; oil alone) | Minimum inhibitory concentration (MIC), bacteria growing in biofilm ([2]; oil alone) | MIC lower against biofilms compared to planktonic cells ([2]; biofilm vs planktonic)
1 | [H]/N=C(\N/C(=N/[H])NCCCCCCNC(=N)NC(=N)Nc1ccc(Cl)cc1)Nc1ccc(Cl)cc1 [CHG, chlorhexidine digluconate] | 2 µg/mL | 32 µg/mL | 8 µg/mL | 2 fold | not detected | 0.0048 μg/mg tissue | 0.0021 (±0.0004) μg/mg tissue | 0.581 (±0.0466) μg per mg tissue | 7.880 μg per mg tissue | did not show detectable levels | – | – | –
2 | Cc1ccc(C(C)C)c(O)c1 [Thymol, thymol] | – | 2000 µg/mL (≈ 13.3 mM) | – | – | – | – | – | – | – | – | 4000 µg/mL (≈ 26.6 mM) | 1000 µg/mL (≈ 6.66 mM) | 2 fold
